Assay [1] deals with Glioblastomzelllinie A172. The experiment in a line: Chemosensitivity (dose-response curves, EC50) of A172 cell lines with modified biomarker expression. Type of assay: cell-based. The settings on record: Homo sapiens. The text has this:
(§1) Alle erfindungsgemäßen Biomarker (SEQ ID No. 1 - 24), die in den differentiellen Untersuchungen identifiziert wurden, sind potentiell in der Lage an der Vermittlung der Chemosensitivität dieser Gliome beteiligt zu sein. Durch den Einsatz ausgewählter Zytostatika mit unterschiedlichen Wirkmechanismen kann überprüft werden, ob die erfindungsgemäßen Biomarker (SEQ ID No. 1 - 24) direkt mit dem Reaktionsmechanismus der in der Therapie üblichen Zytostatika wechselwirken. Hierzu wurden stabile Zelllinien hergestellt und die erfindungsgemäßen Biomarker verstärkt exprimiert (Überexpression) und vermindert (knock-down) exprimiert (siehe J. Sambrook, E.F. Fritsch, T. Maniatis (1989), Molecular cloning: A laboratory manual, 2nd Edition, Cold Spring Habor Laboratory Press, Cold Spring Habor, USA oder Ausubel, "Current Protocols in Molecular Biology", Green Publishing Associates and Wiley Interscience, N.Y. (1989)). Eingesetzte Zytostatika: Carmustin und Vincristin, zwei Substanzen aus dem in der Therapie üblichen PCV Polychemotherapieschema, und Temozolomid, einem in der Therapie […] maligner Gliome neueren Wirkstoff. Zur Auswertung eines Effekts wurden Dosis-Wirkungs-Kurven und deren Lage zueinander und der korrespondierende EC50 Wert (Effektkonzentration; EC-50-Wert besagt, dass bei dieser Konzentration des Stoffes die Hälfte der Versuchsorganismen Wirkungen zeigt) berechnet.

Assay [2] has as its system Glioblastomzelllinie T98G. As to the kind of experiment: Chemosensitivity (dose-response curves, EC50) of T98G cell lines with modified biomarker expression. Type of assay: cell-based. The following applies: Homo sapiens.
Description: as §1

Assay [3] deals with stabilen Zelllinien aus A172 und T98G. As to the kind of experiment: Comparison of the response of the stable A172 and T98G cell lines to cytostatics (summary in words). The class given is cell-based, human. The settings on record: versus control; for Verschiebung der Konzentrationen (Dosis-Wirkungs-Kurven): both cell lines.
Description: as §1
Eine veränderte Reaktion auf eine Behandlung mit Carmustin wurde in allen stabilen Zelllinien aus A172 sowie aus T98G beobachtet.
Einen ähnlichen Effekt zeigte die Behandlung der Zelllinien mit Vincristin. […] Dieses Verhalten wurde ebenfalls in den beiden Zelllinien beobachtet.

As usually defined, the EC50 is the midpoint of the concentration-response curve. With `O=NN(CCCl)C(=O)NCCCl` [Carmustin], the concentration for a half-maximal effect (EC50) was determined as 95.6 µM in assay [1] (A 172, A172 knock-down of ANXA1, treatment with Carmustin); 171 µM in assay [1] (A 172, A172 knock-down of CLIC1, treatment with Carmustin); 107 µM in assay [1] (A 172, A172 knock-down of PRDX1, treatment with Carmustin); 90.8 µM in assay [1] (A 172, A172 knock-down of VIL2, treatment with Carmustin); 94.4 µM in assay [1] (A 172, A172 knock-down series, control cell line (Kontrolle), treatment with Carmustin); 88.3 µM in assay [1] (A 172, A172 overexpressing ANXA1, treatment with Carmustin). The EC50 in assay [1] (A 172, A172 overexpressing CLIC1, treatment with Carmustin) is 105 µM; in assay [1] (A 172, A172 overexpressing PRDX1, treatment with Carmustin), 35.7 µM; in assay [1] (A 172, A172 overexpressing VIL2, treatment with Carmustin), 106 µM; in assay [1] (A 172, A172 overexpression series, control cell line (Kontrolle), treatment with Carmustin) it was 7.87 µM; in assay [2] (T98G knock-down of ANXA1, treatment with Carmustin), 121 µM; in assay [2] (T98G knock-down of CLIC1, treatment with Carmustin), 85.5 µM. In addition, the EC50 in assay [2] (T98G knock-down of PRDX1, treatment with Carmustin) came to 118 µM; in assay [2] (T98G knock-down of VIL2, treatment with Carmustin), 159 µM; in assay [2] (T98G knock-down series, control cell line (Kontrolle), treatment with Carmustin) it was 152 µM; in assay [2] (T98G overexpressing ANXA1, treatment with Carmustin), 207 µM; in assay [2] (T98G overexpressing CLIC1, treatment with Carmustin), 346 µM; in assay [2] (T98G overexpressing PRDX1, treatment with Carmustin), 158 µM. Further, the EC50 is 223 µM in assay [2] (T98G overexpressing VIL2, treatment with Carmustin) and 64.8 µM in assay [2] (T98G overexpression series, control cell line (Kontrolle), treatment with Carmustin).

In the case of `Cn1nnc2c(C(N)=O)ncn2c1=O` [Temozolomid], the EC50 in assay [1] (A 172, A172 knock-down of ANXA1, treatment with Temozolomid) was 113 µM; in assay [1] (A 172, A172 knock-down of CLIC1, treatment with Temozolomid), 150 µM; in assay [1] (A 172, A172 knock-down of PRDX1, treatment with Temozolomid), 118 µM; in assay [1] (A 172, A172 knock-down of VIL2, treatment with Temozolomid), 115 µM; in assay [1] (A 172, A172 knock-down series, control cell line (Kontrolle), treatment with Temozolomid) it was 41 µM; in assay [1] (A 172, A172 overexpressing ANXA1, treatment with Temozolomid), 123 µM. Further, the EC50 in assay [1] (A 172, A172 overexpressing CLIC1, treatment with Temozolomid) came out at 82.6 µM; in assay [1] (A 172, A172 overexpressing PRDX1, treatment with Temozolomid) it was 26.4 µM; in assay [1] (A 172, A172 overexpressing VIL2, treatment with Temozolomid), 83.1 µM; in assay [1] (A 172, A172 overexpression series, control cell line (Kontrolle), treatment with Temozolomid), 165 µM; in assay [2] (T98G knock-down of ANXA1, treatment with Temozolomid), 386 µM; in assay [2] (T98G knock-down of CLIC1, treatment with Temozolomid) it was 335 µM. The concentration giving a half-maximal response (EC50) was determined as 383 µM in assay [2] (T98G knock-down of PRDX1, treatment with Temozolomid); 348 µM in assay [2] (T98G knock-down of VIL2, treatment with Temozolomid); 327 µM in assay [2] (T98G knock-down series, control cell line (Kontrolle), treatment with Temozolomid); 409 µM in assay [2] (T98G overexpressing ANXA1, treatment with Temozolomid); 334 µM in assay [2] (T98G overexpressing CLIC1, treatment with Temozolomid); 321 µM in assay [2] (T98G overexpressing PRDX1, treatment with Temozolomid). The concentration for a half-maximal effect (EC50) worked out at 396 µM in assay [2] (T98G overexpressing VIL2, treatment with Temozolomid) and 394 µM in assay [2] (T98G overexpression series, control cell line (Kontrolle), treatment with Temozolomid). Moreover, the Sensitivität entry is on record as “erhöhte Sensitivität” in assay [3] (biomarkers overexpressed, stable cell lines from A172 and T98G); “umgekehrter Effekt” in assay [3] (knock-down cell lines from A172 and T98G).

As for `CC[C@]1(O)C[C@H]2CN(CCc3c([nH]c4ccccc34)[C@@](C(=O)OC)(c3cc4c(cc3OC)N(C=O)[C@H]3[C@@](O)(C(=O)OC)[C@H](OC(C)=O)[C@]5(CC)C=CCN6CC[C@]43[C@@H]65)C2)C1` [Vincristin], the EC50 in assay [1] (A 172, A172 knock-down of ANXA1, treatment with Vincristin) was determined as 0.037 µM; in assay [1] (A 172, A172 knock-down of CLIC1, treatment with Vincristin), 0.0642 µM; in assay [1] (A 172, A172 knock-down of PRDX1, treatment with Vincristin) it was 0.0527 µM; in assay [1] (A 172, A172 knock-down of VIL2, treatment with Vincristin), 0.0202 µM; in assay [1] (A 172, A172 knock-down series, control cell line (Kontrolle), treatment with Vincristin), 0.0322 µM; in assay [1] (A 172, A172 overexpressing ANXA1, treatment with Vincristin), 0.0153 µM. Further, the concentration giving a half-maximal response (EC50) in assay [1] (A 172, A172 overexpressing CLIC1, treatment with Vincristin) came out at 0.0193 µM; in assay [1] (A 172, A172 overexpressing PRDX1, treatment with Vincristin), 0.0127 µM; in assay [1] (A 172, A172 overexpressing VIL2, treatment with Vincristin), 0.0033 µM; in assay [1] (A 172, A172 overexpression series, control cell line (Kontrolle), treatment with Vincristin) it was 0.0152 µM; in assay [2] (T98G knock-down of ANXA1, treatment with Vincristin) it was 0.0191 µM; in assay [2] (T98G knock-down of CLIC1, treatment with Vincristin), 0.0269 µM. Further, the concentration giving a half-maximal response (EC50) stood at 0.0206 µM in assay [2] (T98G knock-down of PRDX1, treatment with Vincristin); 0.0358 µM in assay [2] (T98G knock-down of VIL2, treatment with Vincristin); 0.01 µM in assay [2] (T98G knock-down series, control cell line (Kontrolle), treatment with Vincristin); 0.0042 µM in assay [2] (T98G overexpressing ANXA1, treatment with Vincristin); 0.0037 µM in assay [2] (T98G overexpressing CLIC1, treatment with Vincristin); 0.0096 µM in assay [2] (T98G overexpressing PRDX1, treatment with Vincristin). In addition, the EC50 in assay [2] (T98G overexpressing VIL2, treatment with Vincristin) was found to be 0.0241 µM; in assay [2] (T98G overexpression series, control cell line (Kontrolle), treatment with Vincristin), 0.0324 µM. Moreover, the entries for the “Verschiebung der Konzentrationen (Dosis-Wirkungs-Kurven)” value in assay [3] (cell lines overexpressing the biomarkers) and in assay [3] (knock-down of the biomarkers) were “Verschiebung zu niedrigeren Konzentrationen” and “höhere Konzentrationen notwendig”, respectively.
